Data published in patent US20150079000A1, “Labelled Quinoxaline Derivatives as Multimodal Radiopharmaceuticals and Their Precursors” (INSTITUT NATIONAL DE LA SANTET DE LA RECHERCHE MEDICALE, priority 2012, published 2015).

Experiments:
melanin polymers = assay: Biodistribution by secondary ion mass spectrometry (SIMS) analysis; format: in vivo, C57BL/6J mice; details: B16BL6 melanoma cells colony in lung, 1 h after i.v. 0.1 μmol/mice
Method: B16BL6 cells were injected intravenously into male C57BL/6J mice to obtain, within 12 days, tumour cell colonies in lungs mimicking pulmonary micrometastases. After i.v. administration of compound (1) (0.1 μmol/mice in 0.2 mL of a hydroalcoholic solution (5% v/v, 0.9% NaCl) per mouse), mice were killed 1 h post injection. Lungs were removed and small pieces of tissue including B16 melanoma colonies were isolated and fixed by slam freezing on an LN2-precooled metal mirror. Samples were dehydrated by freeze drying starting at −110 to −10° C. before embedding in Spurr resin. Serial sections of 0.4 μm thick were deposited on stainless steel holders for SIMS analysis or on glass slides for light microscopy observation.

[1] = octanol/water (PBS buffer) partition coefficient (log D); format: physicochemical
melanoma model B16BL6 = assay: Internal radiotherapy with [131I](1), B16BL6 model; format: in vivo, mice
[2] = system: SKMEL-3 human melanoma model; assay: Internal radiotherapy with [131I](1), SKMEL-3 model; format: in vivo, mice
Method: Compound (1) was labelled with iodine-131, at high specific activity, from the corresponding stannane precursor, as described in detail in example 8. The labeling was performed with a radiochemical yield of 80% and a radiochemical purity>99%. […] The antitumour activity of the compound [^131I](1) was also evaluated in SKMEL-3 human melanoma model after injections of 25 MBq of [^131I](1): Two groups of mice were used receiving two injections at day-33 and day-40 or three injections of at day-33, day-40 and day-47 post inoculation. Results were compared to control group injected with saline.

[3] = Calculation of absorbed dose to the tumour and organs (MIRD); format: in vivo, C57BL/6J mice; details: iodine 131

For CCN(CCNC(=O)c1cnc2cc(I)ccc2n1)CCOCCOCCOCCF [Compound 1, N-(12-ethyl-1-fluoro-3,6,9-trioxa-12-azatetradecan-14-yl)-6-iodoquinoxaline-2-carboxamide], the “colocalisation with melanin polymers (SIMS, CN− and iodine-127 signals)” value (melanin polymers) was “perfect colocalisation”.

For CCN(CCNC(=O)c1cnc2cc([131I])ccc2n1)CCOCCOCCOCCF [[^131I](1)], the “octanol/water (PBS buffer) partition coefficient (log D)” value [1] was 0.95±0.04, the metastasis dissemination (melanoma model B16BL6; B16BL6 melanoma model) was “inhibition of metastasis dissemination” and the tumour doubling time (melanoma model B16BL6; B16BL6 tumours, two i.v. injections of 20 MBq at day-7 and day-11) was 2.9 ± 0.5 days. The median survival time (melanoma model B16BL6; treated B16BL6 bearing-mice) was 27 days, the tumour doubling time ([2]; SKMEL-3 tumours, injections of 25 MBq once weekly for 2 or 3 weeks) was 26.5 ± 7.8 days and the median survival time ([2]; treated SKMEL-3 bearing-mice) was 111 days. For the same compound, the “Biological half life (h)” value ([3]; Adipose) was 38.28 h, the “Effective half life” value ([3]; Adipose) was 47.78 h and the “Biological half life (h)” value ([3]; Bladder (empty)) was 27.57 h. The “Effective half life” value ([3]; Bladder (empty)) was 32.17 h, the “Biological half life (h)” value ([3]; Blood) was 27.45 h and the “Effective half life” value ([3]; Blood) was 32.02 h. The “Biological half life (h)” value ([3]; Brain) was 27.55 h, the “Effective half life” value ([3]; Brain) was 41.63 h and the “Biological half life (h)” value ([3]; Colon with Faeces) was 28.48 h. For the same compound, the “Effective half life” value ([3]; Colon with Faeces) was 26.92 h, the “Biological half life (h)” value ([3]; Eyes) was 125.03 h and the “Effective half life” value ([3]; Eyes) was 356.77 h. For the same compound, the “Biological half life (h)” value ([3]; Heart) was 68.51 h, the “Effective half life” value ([3]; Heart) was 46.93 h and the “Biological half life (h)” value ([3]; Kidney) was 27.60 h. For the same compound, the “Effective half life” value ([3]; Kidney) was 32.22 h, the “Biological half life (h)” value ([3]; Liver) was 25.87 h and the “Effective half life” value ([3]; Liver) was 29.89 h. For the same compound, the “Biological half life (h)” value ([3]; Lung) was 37.73 h, the “Effective half life” value ([3]; Lung) was 34.21 h and the “Biological half life (h)” value ([3]; Muscle) was 37.36 h. For the same compound, the “Effective half life” value ([3]; Muscle) was 46.36 h, the “Biological half life (h)” value ([3]; Pancreas) was 29.04 h and the “Effective half life” value ([3]; Pancreas) was 40.79 h. The “Biological half life (h)” value ([3]; Skin) was 46.20 h, the “Effective half life” value ([3]; Skin) was 60.79 h and the “Biological half life (h)” value ([3]; Small Bowels) was 23.67 h. For the same compound, the “Effective half life” value ([3]; Small Bowels) was 26.99 h, the “Biological half life (h)” value ([3]; Spleen) was 33.66 h and the “Effective half life” value ([3]; Spleen) was 33.43 h. The “Biological half life (h)” value ([3]; Stomach) was 27.36 h, the “Effective half life” value ([3]; Stomach) was 31.89 h and the “Biological half life (h)” value ([3]; Testes) was 27.57 h. The “Effective half life” value ([3]; Testes) was 32.16 h, the “Biological half life (h)” value ([3]; Tumour) was 71.67 h and the “Effective half life” value ([3]; Tumour) was 114.18 h. The “Biological half life (h)” value ([3]; bones) was 12.92 h and the “Effective half life” value ([3]; bones) was 13.85 h.
